Reference: patent publication US5244918A, “Benzofuran derivative and pharmaceutical comprising the same as active ingredient” (Meiji Milk Products Co., Ltd., priority 1989, dated 1993)
Like-named read-outs stand apart in the source and are kept apart here.

Columns and labels:
SRS-A production [1] = conditions: Prostaglandins 26, 955-973 (1983); read-out: 50% inhibition concentration (known agent, literature); cited from earlier work
5-lipoxygenase = target: T1, 5-lipoxygenase (Rattus norvegicus, UniProt P12527); assay: 5-Lipoxygenase inhibitive activity (production of 5-HETE by RBL-1 cell supernatant); type: biochemical; conditions: for IC50: inhibition of 5-HETE production, 37° C., 10 minutes, 100 μM arachidonic acid
T1 construct: ultracentrifugation at 100,000×g for 90 minutes to collect a supernatant, which was served as a 5-lipoxygenase enzyme liquid; host or cells: RBL-1 (rat basophilic leukemia cells), 100,000×g supernatant of sonicated cells
T1 sequence (P12527 1-673): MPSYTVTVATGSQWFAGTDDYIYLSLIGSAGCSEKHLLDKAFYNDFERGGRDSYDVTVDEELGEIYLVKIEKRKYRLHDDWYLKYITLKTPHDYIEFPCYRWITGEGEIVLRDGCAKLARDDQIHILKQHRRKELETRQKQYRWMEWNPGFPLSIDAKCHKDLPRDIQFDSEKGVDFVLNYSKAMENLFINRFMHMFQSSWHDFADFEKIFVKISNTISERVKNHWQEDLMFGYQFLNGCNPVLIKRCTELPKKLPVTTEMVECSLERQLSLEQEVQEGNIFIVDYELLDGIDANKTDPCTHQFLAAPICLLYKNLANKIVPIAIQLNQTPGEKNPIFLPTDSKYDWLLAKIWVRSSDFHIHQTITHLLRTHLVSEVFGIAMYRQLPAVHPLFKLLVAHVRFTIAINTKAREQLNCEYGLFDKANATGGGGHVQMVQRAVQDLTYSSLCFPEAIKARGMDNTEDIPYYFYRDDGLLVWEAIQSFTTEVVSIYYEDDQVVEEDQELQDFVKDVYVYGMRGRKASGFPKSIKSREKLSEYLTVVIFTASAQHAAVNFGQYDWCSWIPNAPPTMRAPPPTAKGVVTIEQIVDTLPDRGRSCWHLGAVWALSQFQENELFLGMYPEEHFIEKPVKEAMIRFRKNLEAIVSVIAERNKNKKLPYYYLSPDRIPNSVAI
Description: 2.5×10^7 RBL-1 cells (rat basophilic leukemia cells, purchased from Dainippon Pharmaceutical Co. Ltd.) were washed twice with 0.1M Tris-HCl buffer (pH 7.5) and ultrasonicated. The pulverized cell liquid was subjected to ultracentrifugation at 100,000×g for 90 minutes to collect a supernatant, which was served as a 5-lipoxygenase enzyme liquid in the test. […] After terminating the reaction by an addition of 50 μl of 1N HCl, the reaction mixture was extracted with 6 ml of ethyl acetate.

mice = assay: Single administration toxicity test in mice; conditions: mouse, in vivo
Description: Compound 1 was intravenously or intraperitoneally administered one time to groups of ICR male mice (age: 5 weeks, purchased from Japan SLC Co.), each group consisting of 5, to observe the death of the mice in 14 days. […] Thus, the fatal dose of Compound 1 in single intravenous administration to mice was above 20 mg/kg. […] The fatal dose of Compound 1 in single intraperitoneal administration to mice was about 100 mg/kg or more.

SRS-A production [2] = assay: SRS-A production inhibitive activity (sensitized guinea pig lung fragments, ileum bioassay); type: cell-based, guinea pig (Hartley male)
Description: LTC4 and LTD4 which consist of SRS-A are very strong chemical mediators of allergic bronchial asthma and the like. The inhibitory effect of Compound 1 against the production of SRS-A was therefore biologically measured.
A suspension of 1 mg of egg white albumin and 0.5 ml of complete Freund's adjuvant was intraperitoneally injected to Hartley male guinea pigs. The same antigen liquid was again injected 2 or 3 weeks thereafter to effect the sensitization. The sensitized guinea pigs were sacrificed by bleeding, and the lung was washed with a Tyrode's solution and cut into pieces to prepare lung fragment specimens. 300 mg of the lung fragments were floated on 2.8 ml of the Tyrode's solution. After shaking the solution at 37° C. for 20 minutes, 0.1 ml of Compound 1 was added. Shaking this solution was carried out for a further 5 minutes, followed by the addition of 0.1 ml of an egg white albumin solution (the ultimate antigen concentration: 1 mg/ml). After the reaction at 37° C. for 20 minutes, 12 ml of methanol was added and the mixture was stirred. The reaction mixture was centrifuged, the supernatant was concentrated under reduced pressure to dryness, and the dry solid was dissolved into 1 ml of water to biologically measure LTs (SRS-A) contained therein.
The determination of the quantity of SRS-A produced was carried out by using the ileum enucleated from Hartley male guinea pigs and counting the constriction of the ileum in the presence of 10^-6 M Atropine and Pyrilamine. A standard curve for the standard sample was prepared based on LTD4 to determine the amount of SRS-A produced by the effect of Compound 1 as the amount of LTD4.

[3] = tested on: auricle edema induced with arachidonic acid; assay: Auricle edema inhibitive activity in mice (induced with arachidonic acid); type: in vivo, mouse (ICR male); conditions: topical
Description: In vivo anti-inflammatory action of Compound 1 was tested using auricle edema in mice as a model.
ICR male mice (Japan Charles River), weighing 29.9-40.4 g, 8 week age, were anesthetized with pentobarbital (Trademark: Nembutal, manufactured by Dainabott-Dainippon Pharmaceutical Co., Ltd.) to measure the thickness of the right ear with a dial thickness gauge. 20 μl of Compound 1 and control compound (acetone) were applied (the amount hereinafter specified) to the inside of the right ear with microsyringe, and, 30 minutes later, 2 mg of arachidonic acid was applied in the same manner to the inside of the right ear. The thickness of the right ear was measured 60 minutes after the application of arachidonic acid. Mice were then sacrificed by vertebral cervical dislocation and a circle with a diameter of 7 mm was cut out from the center of the right ear with an ear punch to measure its weight. The test was performed twice; the amounts of Compound 1 applied were 4 mg, 1 mg, 0.4 mg, 0.04 mg, and 0.004 mg per ear for the first test and 1 mg, 0.2 mg, 0.04 mg, 0.008 mg, and 0.0016 mg per ear for the second test. Both Compound 1 and arachidonic acid were used as dissolved in acetone.
The results are shown in FIG. 8-1 (the first test) and FIG. 8-2 (the second test). […] The 50% effective dose (ED50) in the two experiments were very close to each other, 0.03-0.08 mg/ear.

edema in paws of rats = assay: Edema inhibitive activity in rat soles (arachidonate-induced paw edema); type: in vivo, rat (Wister male); conditions: 200 mg/kg oral
Description: In vivo anti-inflammatory action of Compound 1 was tested using edema in paws of rats as a model.
Wister male rats (Japan Charles River), weighing 150-170 g, 6 week age, were fasted from the previous day of the test for serving to the experiment.
Samples (10 ml/kg) were orally administered to the control (solvent: 0.5% gum arabica) group and Compound 1 (200 mg/kg body weight) test group. After 2 hours, 100 μl of a sodium arachidonate solution (5 mg/ml, 0.1M carbonate buffer, pH 8.4) was injected in the paw to determine the increase of the edema volume after 1 hour. The increase of the edema volume was determined by subtracting the value measured 1 hour before the administration of arachidonate from the value measured 1 hour after the administration. The foot volume increase (ml, means±S.D.) in the control group was 0.822±0.131 (n=10), whereas that in Compound 1 test group was 0.664±0.104 (n=8).

In the case of `CC1=C(C)C(=O)C(CCCCC#CCCCC#CCO)=C(C)C1=O` [AA-861], the IC50 (SRS-A production [1]) is given as 1.8 µM.
With `C/C=C/C=C/C1Cc2cc(O)cc(O)c2O1` (stereo not drawn) [Compound 1, 2-(1-tans, 3-trans-pentadienyl)-2,3-dihydro-5,7-dihydroxybenzofuran] the “5-lipoxygenase inhibitory activity (in words)” value (5-lipoxygenase) was “specific 5-lipoxygenase inhibitory activity”, the IC50 (5-lipoxygenase) was 2 µM and the “death of mice, intraperitoneal” value (mice) was “no death in the mice occurred”. The “fatal dose, single intraperitoneal administration” value (mice; ip) was ≥ 100 mg/kg, the “fatal dose, single intravenous administration” value (mice; iv) was “above 20 mg/kg” and the “death of mice, intravenous” value (mice; iv, 20 mg/kg) was “no mice were dead”. For the same compound, the “general conditions, body weight and autopsy, intravenous” value (mice; iv, 20 mg/kg) was “No abnormality was observed”, the “SRS-A inhibitory effect compared with AA-861 (in words)” value (SRS-A production [2]; AA-861: 1.8×10^-6 M (literature)) was “equivalent to a known 5-lipoxygenase inhibitory agent, AA-861” and the IC50 (SRS-A production [2]; Cavia porcellus, 20 min, sensitized guinea pig lung fragments, egg white albumin 1 mg/ml, 37° C., 20 min, read-out: 50% inhibition concentration, SRS-A production) was 4 µM. For the same compound, the “SRS-A production inhibitory effect (in words)” value (SRS-A production [2]; guinea pig lung) was “dependent on the concentration”, the “50% effective dose (ED50)” value ([3]; inside of right ear, 30 min before 2 mg arachidonic acid, two experiments) was 0.03-0.08 mg/ear and the “inhibitory effect against auricle edema (in words)” value ([3]; ear thickness and weight, FIG. 8-1, 8-2) was “dose dependent inhibitory effect”. The “foot volume increase (means±S.D.)” value (edema in paws of rats; 2 h before arachidonate, 1 h after, n=8, control 0.822±0.131 (n=10)) was 0.664 ± 0.104 mL and the edema inhibitory effect (edema in paws of rats; versus control group) was 19.2%.
For `CCCCCC1Cc2cc(O)cc(O)c2O1` (centres unmarked) [Compound 2, 2-n-pentyl-2,3-dihydro-5,7dihydroxybenzofuran], the IC50 (5-lipoxygenase) was 1.2 µM.
Compound “2-(1,3-pentadienyl)-2,3-dihydro-5-hydroxy(or methoxy)-7-methoxy(or hydroxy)benzofuran [Compound 3]” has an IC50 (5-lipoxygenase) of 1.5 µM.
